Earlier results on 13 compounds are cited in patent US20040038429A1, “Method of searching for novel lead compound” (priority 2000, published 2004).

Read-outs that look alike come from different tables or passages of the source.

The target in one data set is Thrombin (Homo sapiens, UniProt P00734).
A further data set addresses T1, Trypsin (Bos taurus, UniProt P00760).
T1 construct: gene PRSS1

The next data set addresses 5-HT4 (Homo sapiens, UniProt Q13639).

T1 sequence (P00760 24-246): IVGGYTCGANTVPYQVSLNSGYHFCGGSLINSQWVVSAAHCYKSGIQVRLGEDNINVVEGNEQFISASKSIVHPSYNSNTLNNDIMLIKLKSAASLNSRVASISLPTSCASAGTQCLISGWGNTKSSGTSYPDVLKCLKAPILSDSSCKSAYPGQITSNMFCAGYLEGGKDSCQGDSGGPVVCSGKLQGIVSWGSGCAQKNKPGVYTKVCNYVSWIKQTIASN
Sequence of 5-HT4 (Q13639 whole entry, species assumed): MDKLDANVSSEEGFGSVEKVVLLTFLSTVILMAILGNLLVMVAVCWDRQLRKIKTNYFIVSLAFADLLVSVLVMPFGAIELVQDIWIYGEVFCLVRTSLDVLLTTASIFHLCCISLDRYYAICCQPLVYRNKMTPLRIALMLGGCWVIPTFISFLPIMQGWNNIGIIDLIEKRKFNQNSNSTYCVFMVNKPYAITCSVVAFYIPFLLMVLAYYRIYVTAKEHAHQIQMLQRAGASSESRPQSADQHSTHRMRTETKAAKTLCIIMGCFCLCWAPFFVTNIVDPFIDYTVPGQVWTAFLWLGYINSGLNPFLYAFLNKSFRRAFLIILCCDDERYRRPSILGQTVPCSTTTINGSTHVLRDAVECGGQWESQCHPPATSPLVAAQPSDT

Take `COC(=O)[C@H](CCCCN)NS(=O)(=O)c1ccc(C)cc1.Cl`: the Known bioactivity entry at Thrombin (thrombin) is recorded as “Thrombin substrate”.
As to `Cc1ccc(S(=O)(=O)N[C@@H](CCCCN)C(=O)CCl)cc1.Cl`, the Known bioactivity entry on Trypsin is “Trypsin inhibitor”.
Regarding `Cc1ccc(S(=O)(=O)N[C@@H](CCCCN)C(=O)CCl)cc1`, the Known bioactivity result on Trypsin is recorded as “Trypsin inhibitor”.
In the case of `COc1cc(N)c(Cl)cc1C(=O)CCC1CCN(CCNS(C)(=O)=O)CC1`, at 5-HT4, the Known bioactivity is given as 5-HT4 Partial agonist.
As for `CC(=O)O.N=C(N)c1ccc(CC(NC(=O)CNS(=O)(=O)c2ccc3ccccc3c2)C(=O)N2CCCCC2)cc1` (stereo not shown), the Known bioactivity entry at Thrombin is listed as “Thrombin inhibitor”.
Take `COC(=O)[C@H](CCCCN)NS(=O)(=O)c1ccc(C)cc1`: the Known bioactivity result at Thrombin (thrombin) is reported as “Thrombin substrate”.
As to `Cc1ccc(S(=O)(=O)NC(Cc2ccc(C(=N)N)cc2)C(=O)N2CCCCC2)cc1` (racemic) [4-TAPAP, Nα-(4-toluene-sulfonyl)-DL-p-amidinophenylalanyl-piperidine, reference compound], the Known bioactivity entry on Thrombin (thrombin) is “thrombin inhibitors”.
For `C[C@@H]1CCN(C(=O)[C@H](CCCNC(=N)N)NS(=O)(=O)c2cccc3c2NC[C@H](C)C3)[C@@H](C(=O)O)C1` [MQPA, (2R,4R)-4-methyl-1-[Nα-(3-methyl-1,2,3,4-tetrahydro-8-quinolinesulfonyl)-L-arginyl]-2-piperidinecarboxylic acid, reference compound], the Known bioactivity entry on Thrombin (thrombin) is “thrombin inhibitors”.
Turning to `N=C(N)c1ccc(CC(NC(=O)CNS(=O)(=O)c2ccc3ccccc3c2)C(=O)N2CCCCC2)cc1` (stereo not shown) [drawing 16], at Thrombin, the Known bioactivity entry is “Thrombin inhibitor”.
For `CCC1CCCN(C(=O)[C@H](CCCNC(=N)N)NS(=O)(=O)c2cccc3c(N(C)C)cccc23)C1` (stereo partly shown) [drawing 26], at Thrombin (thrombin), the Known bioactivity entry is reported as “Thrombin inhibitor”.
As to `N=C(N)c1ccc(CC(NC(=O)CNS(=O)(=O)c2ccc3ccccc3c2)C(=O)N2CCCCC2)cc1` (stereo not shown) [drawing 31], the Known bioactivity result at Thrombin was “Thrombin inhibitor”.
As to `CCC1CCCN(C(=O)[C@H](CCCNC(=N)N)NS(=O)(=O)c2cccc3c(N(C)C)cccc23)C1` (stereo partly shown) [drawing 32], the Known bioactivity result on Thrombin (thrombin) was “Thrombin inhibitor”.
With `N=C(N)c1ccc(CC(NC(=O)CNS(=O)(=O)c2ccc3ccccc3c2)C(=O)N2CCCCC2)cc1` (stereo not shown) [drawing 33], on Thrombin, the Known bioactivity entry was “Thrombin inhibitor”.
